Assay results reported in patent US12527776B2, “Treatment of ciliopathies using inhibitors of glucosylceramide synthase (GCS)” (GENZYME CORPORATION, priority 2019, dated 2026).

Tests used:
Assay type in all cases: in vivo, mouse
Bbs2−/− mice [1] = assay: Retinal degeneration in Bbs2−/− mice (OCT, immunofluorescence); settings: treatment for 5 months from one month of age
From the text: (§1) A Bbs2^−/− mouse model has been described by Nishimura D Y et al. (Proc Natl Acad Sci, 101:16588-16593 (2004)) with exons 5-14 of Bbs2 replaced with a neomycin cassette. Mice were backcrossed into 129/SvJ background. Treated Bbs2^−/− mice were fed ad libitum with 0.033% w/w of Compound 1 incorporated in feed from the age of 1 month to 6 months. Bbs2^−/− and Wt control animals were fed regular 5053 chow (LabDiet). To establish metabolic disease, Bbs2^−/− mice were left untreated until four-months of age, and then treated with Compound 1 incorporated into feed for the fifth and sixth months.
A non-invasive imaging technique, optical coherence tomography (OCT) using the Bioptigen Envisu R2200 instrument, was used to generate a cross-sectional image of the retina with 2 micron resolution to measure the thickness of the retinal cell layers in vivo.
Paraffin-embedded samples of eyes from Wt and Bbs2^−/− mice were prepared and analysed as described supra. The primary antibodies used were rhodopsin (Thermo Scientific) and cone arrestin (EMD Millipore).

Bbs2−/− mice [2] = assay: Metabolic parameters in Bbs2−/− mice
From the text: as §1
Body composition was analyzed using an EchoMRI™. Measurements of the fat mass and of lean mass were recorded and percent of body fat was calculated. Body composition was calculated using the following formula: fat mass/(fat mass+lean mass).
Food weights were recorded from the food hopper and bedding. Average food consumption per animal per day was estimated using the following formula: [(food weight at start of period−(food weight at end of period in hopper[…])]/#animals in the cage/#days of observation.
Blood was collected during necropsy and incubated for 15 minutes at room temperature to allow clot formation. Clot was removed by centrifugation at 15,000 rpm for 5 minutes to collect serum. Leptin ELISA kit (R&D Systems) was used to measure leptin concentrations according to the manufacturer's instructions.
Total RNA was isolated from homogenized adipose tissue dissected from 6-month old mice using TRizol and chloroform extraction followed by the RNAeasy Mini Kit Purification (Qiagen), quantified using the NanoDrop 2300 system, and was reverse transcribed using High Capacity cDNA Reverse Transcription Kit (Applied Biosystems). Primers for Fas and Srebf1 were purchased from Applied Biosystems. Quantitative PCR was performed in duplicate for each sample on an Applied Biosystems RT-PCR machine using Taqman Universal Master Mix (Thermo Fisher) according to the manufacturer's instructions. Relative amounts of mRNA were determined using the Comparative CT Method for quantification and were normalized to GAPDH mRNA levels.
Automated digital image analysis was performed on whole adipose tissues using Visiopharm Image Analysis software (DK-2970 Hoersholm, Denmark, version 6.9.1). Two custom-written applications were created and run consecutively for each digital image. The first application detected adipose tissue using threshold classification and outlined the area as a Region of Interest (ROI). The second application used threshold to classify the tissue inside the ROI into three categories: Cytoplasm (cytoplasmic membrane), Adipose (Adipocyte), and Other (unwanted artifacts, large vessels, other tissue). Post processing steps included enclosing adipose with cytoplasm and selecting adequate adipose cells for counting by removing any adipose with a form factor less than 0.5.
Paraffin-embedded samples of brain tissue from Wt and Bbs2^−/− mice were cut and 4 micrometer sections were boiled in Antigen Retrieval solution (DAKO) in a pressure cooker to unmask antigens. Sections were blocked for 1 hour with 3% BSA followed by incubation with primary antibodies to adenylate cyclase III (Santa Cruz Biotechnology) diluted in 3% BSA overnight at 4° C. Alexa Fluor 488 secondary antibody (Invitrogen) was used at the dilution 1:1000. Images were acquired on a Leica DM5500B microscope fitted with ×40 and ×60 objectives using Leica Application Suite Advance Fluorescence software (Leica Microsystems).

Bbs2−/− mice [3] = assay: Olfaction (buried treat test) and main olfactory epithelium immunofluorescence in Bbs2−/− mice; settings: feed from 1 to 6 months of age
From the text: as §1
Animal olfaction was tested using a protocol adapted from Yang M. et al. (Curr Protoc Neurosci, DOI:10.1002/0471142301.ns0824s48 (2009)). Before testing, animals were acclimatised for three days and then fasted for 18 hours in cage with Alpha Dri bedding. Treat (Bioserv Supreme Mini-Treats, Chocolate flavor) was buried 1 cm deep in a clean cage with 3 cm deep bedding. Animals were placed in cage and time was recorded when treat was found and bitten into.
Paraffin-embedded samples of nasal cavities from Wt and Bbs2^−/− mice were prepared and analysed as described supra. The primary antibodies used were acetylated tubulin (Cell Signaling Technology), cytokeratin 14 (Protein Tech), SRY-Box 2 (Cell Signaling Technology), doublecortin (Cell Signaling Technology), and olfactory marker protein (Wako).

Bbs2−/− mice [4] = assay: Liver abnormalities in Bbs2−/− mice (liver weight, ALT, triglycerides); settings: feed from 1 to 6 months of age
From the text: as §1
Triglyceride and ALT levels were measured using a VetACE™ analyzer (Alfa Wasserman, West Coldwell, NJ).

[5] = 0.033% w/w in feed from 1 to 6 months of age
[6] = established disease, 0.033% w/w in feed starting at 4 months of age, after one month
[7] = white adipose tissue, feed from 1 to 6 months of age

Compound: CC(C)(NC(=O)OC1CN2CCC1CC2)c1cccc(-c2ccc(F)cc2)c1 (centres unmarked) [Compound 1, 1-azabicyclo[2.2.2]oct-3-yl [2-(4′-fluorobiphenyl-3-yl)propan-2-yl]carbamate]
- increase in the thickness of the ONL (Bbs2−/− mice [1]): ~2 fold
- rod-cone specific staining (rhodopsin, cone arrestin) (Bbs2−/− mice [1]): partial restoration/preservation of rod-cone specific staining
- body fat (Bbs2−/− mice [2]; [5]): significant decrease
- body weight (Bbs2−/− mice [2]; [5]): significant decrease
- food consumption (Bbs2−/− mice [2]; [5]): significant decrease
- serum leptin (Bbs2−/− mice [2]; [5]): reduced to wild type levels
- cilia in the hypothalamus (Bbs2−/− mice [2]; Compound in feed): preserved the hypothalamic cilia
- body fat (Bbs2−/− mice [2]; [6]): decreased
- body weight (Bbs2−/− mice [2]; [6]): decreased
- serum leptin (Bbs2−/− mice [2]; [6]): decreased
- adipocyte size (Bbs2−/− mice [2]; established disease, after the two-month treatment): decrease of adipocyte size
- adipocyte size (Bbs2−/− mice [2]; [7]): reduction of adipocyte size
- expression of pro-adipogenic gene Srebf1 (Bbs2−/− mice [2]; [7]): corrected upon treatment to the levels observed in Wt control
- adenylate cyclase III (ACIII) in the MOE (Bbs2−/− mice [3]): increase in ACIII
- cilia in the MOE (acetylated tubulin) (Bbs2−/− mice [3]): preservation/restoration of the cilia in the MOE
- differentiation in MOE (immature vs mature neurons) (Bbs2−/− mice [3]): correction of this phenotype to resemble that of wild type animals
- olfaction defect (time to find a buried treat) (Bbs2−/− mice [3]): restored
- liver weight (Bbs2−/− mice [4]): normalized
- serum ALT (Bbs2−/− mice [4]): normalized
- serum triglycerides (Bbs2−/− mice [4]): normalized
